{"source": "patent US20060052357A1", "about": "“Organometallic anti-tumour agent” (priority 2001, published 2006)", "key": {"adenocarcinoma [1]": {"tested_on": "adenocarcinoma", "experiment": "Adenocarcinoma, intravenous administration four times", "type": "in vivo, mice", "details": "5 mg/kg intravenous four times", "source_text": "2. Antitumor Activity for Adenocarcinoma and Intra-Venous Administration (Four Times in Physiological Saline Solution)"}, "adenocarcinoma [2]": {"tested_on": "adenocarcinoma", "experiment": "Adenocarcinoma transplanted after administration of the product", "type": "in vivo, mice", "details": "day 21", "procedure": "3. Antitumor Activity for Adenocarcinoma Transplanted After Administration of the Product.\nThe active ingredient of the invention was administered intravenously in the dosage stated in the table 4 days in succession in physiological saline solution of 0.3 ml each time. The adenocarcinoma was then implanted in the Balb mice. 21 days after the tumor was transplanted, the animals were sacrificed and the weight and size of the tumor recorded. The animals received no other drugs during the experiment and were kept with a normal feed ration."}, "C-180 sarcoma": {"tested_on": "C-180 sarcoma", "experiment": "Antitumor activity for C-180 sarcoma, intraperitoneal", "type": "in vivo", "details": "5 mg/kg intraperitoneal", "procedure": "4. Antitumor Activity for C-180 Sarcoma\nThe results of series of experiments in which the stated active ingredient was administered intra-peritoneally in the stated dosage in physiological saline solution are shown in table 5 below."}, "leukemia P-388": {"tested_on": "leukemia P-388", "experiment": "Leukemia P-388 survival (original strain)", "type": "in vivo, mice", "procedure": "(§1) The therapeutic efficacy was investigated on the leukemia tumor strains L-1210, P-388, and P-388 strains specifically obtained for drug resistance. The lifespan of the animals was set at 60 days in this case. Drug-resistant tumor were obtained by successive transplantation of the leukemia P-388 with ascites cells taken from mice which had been treated with rubomycin (strain P388/ph), vincristine (P388/vcr) and zisplatin (P388/cPt).\nInoculum: 10^6 cells in 0.2 ml of physiological saline solution. Mice: BDF1. Females 19-21 g\nAfter transplantation of the tumor, the substance MOC.melphalan was administered intraabdominally to the animals in a dosage of 5 mg/kg in 0.3 ml of 10% Twin-80 solution on days 1 to 7. The effect of the substance was assessed on the basis of the lifespan and the weight change of the animals (table 7).\n(§2) The products were administered intraabdominally. Cu(acac)2M was dissolved in 10% Twin 80."}, "P388/ph": {"tested_on": "P388/ph", "experiment": "Drug-resistant leukemia P388/ph (rubomycin-resistant) survival", "type": "in vivo, mice", "details": "5 mg/kg, days 1-7", "source_text": "as §1\n(§3) Resistance to the products mentioned appear in the 8th, 6th and 4th generation.\nas §2"}, "P388/vcr": {"tested_on": "P388/vcr", "experiment": "Drug-resistant leukemia P388/vcr (vincristine-resistant) survival", "type": "in vivo, mice", "details": "5 mg/kg, days 1-7", "source_text": "as §1, §3, §2"}, "[3]": {"tested_on": "drug-resistant leukemia P-388 tumors", "details": "rubomycin-, vincristine-, cisplatin-resistant P-388", "source_text": "The drug-resistant tumors were obtained by administration of ascites cells leukemia P-388 which were derived from mice treated with rubomycin, vincristine and cisplatin."}, "Toxicity investigations": {"experiment": "Toxicity investigations", "type": "in vivo, five laboratory species", "details": "5 mg/kg of body weight", "procedure": "The toxicity of the complex (C5H7O2)2—Cu—C13H18Cl2N2O2 of the invention was determined on five laboratory species in various tests. […] It was additionally possible to show in the investigations that (C5H7O2)2—Cu—C13H18Cl2N2O2 induces no resistance even on prolonged administration."}, "AKATON tumor": {"tested_on": "AKATON tumor", "experiment": "AKATON tumor prevention by MOC.melphalan", "type": "in vivo, mice", "details": "for Average tumor mass: control 4.46; for Average tumor volume: control 7.90", "procedure": "Mice of the Balb line received the substance MOC.melphalan in dosages of 2.5 mg/kg and 5 mg/kg in 0.3 ml of physiological solution by intravenous administration on four consecutive days (1× a day). On day 5, the AKATON tumor was implanted in the animals. The animals were sacrificed on day 21 of the investigation and underwent histological, morphological examination (table 16, FIG. 6)."}, "B-16 melanoma tumor": {"tested_on": "B-16 melanoma tumor", "experiment": "B-16 melanoma tumor, MOC.melphalan and MOC.tegafur (Example 13)", "type": "in vivo, mice", "details": "Dose 5 mg/kg (table), day 16", "procedure": "MOC.tegafur was administered in a physiological solution. The animals in the control group likewise received administration of the solutions (without products). On day 16, the mice were sacrificed by decapitation, tumor tissue was removed for histological examination, and the tumor was investigated for antitumor activity (table 23). The tumors were fixed with 10% formalin, which was followed by embedding in paraffin. The section thickness of 5 μm were stained with hematoxylin-eosinome. The microscopy was carried out with a Leica Galen microscope."}, "[4]": {"tested_on": "tumor cell cultures (KML)", "experiment": "Protein synthesis: inclusion of 3H-amino acids in tumor cell cultures", "type": "cell-based, mice", "details": "50 μg/ml, incubation 24 hours", "procedure": "The effect of the substances on protein synthesis is determined with the aid of the suppression stage through the inclusion of radioactive precursors of amino acids (totaled mixture of ^3H-amino acids). 1 million cells in a “log phase” were selected for this. The complexes were introduced in a dosage of 50 μg/ml and, in parallel, the amino acids with an activity of 10 mCi/ml were introduced into 10 ml bottles. After incubation for 24 hours, the cells were washed out from the cultivation nutrient medium, and a lysis (disruption) was carried out. The radioactivity of the proteins was determined in a […] (table 25)."}, "Hydrolysis stability": {"experiment": "Hydrolysis stability", "type": "physicochemical", "details": "for period of stability (no hydrolysis): 20° C.", "procedure": "0.6 g of (C5H7O2)2—Cu—C13H18Cl2N2O2 was dispersed in 100 ml of water or physiological saline solution with the aid of an ultrasound generator (frequency: 15 kHz, 10 minutes).\n0.6 g of (C5H7O2)2—Cu—C13H18Cl2N2O2 was dispersed in 100 ml of 100% olive oil with the aid of an ultrasound generator (frequency: 15 kHz, 10 minutes).\n0.1 g of (C5H7O2)2—Cu—C13H18Cl2N2O2 was dispersed in 100 ml of linoleic acid or linolenic acid with the aid of an ultrasound generator (frequency: 15 kHz, 10 minutes)."}, "[5]": {"experiment": "Solubility and stability in air"}, "[6]": {"details": "5 mg/kg i.v. 4 days before implantation"}, "[7]": {"details": "5 mg/kg intraabdominal days 1-7"}, "[8]": {"details": "2.5 mg/kg i.v. four consecutive days before implantation"}, "[9]": {"details": "5.0 mg/kg i.v. four consecutive days before implantation"}}, "data": [{"compound": "CC(=O)C=C(C)[O-].CC(=O)C=C(C)[O-].NC(Cc1ccc(N(CCCl)CCCl)cc1)C(=O)O.[Cu+2]", "note": "(stereo not shown) [MOC.melphalan, (C5H7O2)2—Cu—C13H18Cl2N2O2]", "values": [{"measurement": "% inhibition", "setting": "adenocarcinoma [1]", "value": 80, "unit": "%"}, {"measurement": "Mass of the tumor", "setting": "adenocarcinoma [1]; control 4.4", "value": 0.9, "unit": "g"}, {"measurement": "% inhibition (mass of the tumor)", "setting": "adenocarcinoma [2]; [6]", "value": 80, "unit": "%"}, {"measurement": "% inhibition (size of the tumor)", "setting": "adenocarcinoma [2]; [6]", "value": 82.5, "unit": "%"}, {"measurement": "Size of the tumor", "setting": "adenocarcinoma [2]; 5 mg/kg i.v. 4 days before implantation, control 7.9", "value": 1.38, "unit": "cm^3"}, {"measurement": "Mass of the tumor", "setting": "adenocarcinoma [2]; 5 mg/kg i.v. 4 days in succession before implantation, control 4.46", "value": 0.91, "unit": "g"}, {"measurement": "% inhibition", "setting": "C-180 sarcoma", "value": 100, "unit": "%"}, {"measurement": "Mass of the tumor", "setting": "C-180 sarcoma; control 2.8", "value": "no tumor"}, {"measurement": "Change in weight", "setting": "leukemia P-388; [7]", "value": -2.5, "unit": "g"}, {"measurement": "Increase in average lifespan", "setting": "leukemia P-388; [7]", "value": 56.0, "unit": "%"}, {"measurement": "Number of animals which survived to day 60", "setting": "leukemia P-388; 5 mg/kg intraabdominal days 1-7, 6 animals", "value": 0}, {"measurement": "Average lifespan", "setting": "leukemia P-388; 5 mg/kg intraabdominal days 1-7, control 10.8", "value": 16.8, "unit": "days"}, {"measurement": "ILS %", "setting": "leukemia P-388; 5 mg/kg, days 1-7", "value": 56, "unit": "%"}, {"measurement": "ILS %", "setting": "P388/ph", "value": 189, "unit": "%"}, {"measurement": "Number of surviving animals/number of animals in group", "setting": "P388/ph", "value": "2/6"}, {"measurement": "ILS %", "setting": "P388/vcr", "value": 516, "unit": "%"}, {"measurement": "Number of surviving animals/number of animals in group", "setting": "P388/vcr", "value": "5/6"}, {"measurement": "sensitivity of the resistant tumors reduced", "setting": "[3]", "value": "4-5 fold"}, {"measurement": "changes in organs and tissues", "setting": "Toxicity investigations", "value": "no specific changes"}, {"measurement": "changes in the peripheral blood count", "setting": "Toxicity investigations", "value": "no serious changes"}, {"measurement": "effects on renal and hepatic function", "setting": "Toxicity investigations", "value": "no pathological effects"}, {"measurement": "Percent inhibition of tumor volume", "setting": "AKATON tumor; [8]", "value": 40, "unit": "%"}, {"measurement": "Percent inhibition of tumor weight", "setting": "AKATON tumor; [8]", "value": 40, "unit": "%"}, {"measurement": "Average tumor mass", "setting": "AKATON tumor; [8]", "value": 2.67, "unit": "g"}, {"measurement": "Average tumor volume", "setting": "AKATON tumor; [8]", "value": 4.76, "unit": "cm^3"}, {"measurement": "Percent inhibition of tumor volume", "setting": "AKATON tumor; [9]", "value": 82, "unit": "%"}, {"measurement": "Percent inhibition of tumor weight", "setting": "AKATON tumor; [9]", "value": 80, "unit": "%"}, {"measurement": "Average tumor mass", "setting": "AKATON tumor; [9]", "value": 0.91, "unit": "g"}, {"measurement": "Average tumor volume", "setting": "AKATON tumor; [9]", "value": 1.38, "unit": "cm^3"}, {"measurement": "MI (mitosis index)", "setting": "B-16 melanoma tumor; control 4.22", "value": 0.64}, {"measurement": "Percent inhibition", "setting": "B-16 melanoma tumor; intraabdominal days 3, 5, 9", "value": 77.71, "unit": "%"}, {"measurement": "Tumor weight", "setting": "B-16 melanoma tumor; intraabdominal days 3, 5, 9, control 3.22", "value": 0.74, "unit": "g"}, {"measurement": "Suppression of amino acid inclusion", "setting": "[4]", "value": 59, "unit": "%"}, {"measurement": "period of stability", "setting": "Hydrolysis stability; 0.1 g in 100 ml of linoleic acid or linolenic acid, 20° C. in air", "value": 1, "unit": "year"}, {"measurement": "period of stability (no hydrolysis)", "setting": "Hydrolysis stability; 0.6 g in 100 ml of 100% olive oil", "value": "more than 2 years"}, {"measurement": "period of stability (no hydrolysis)", "setting": "Hydrolysis stability; 0.6 g in 100 ml of water or physiological saline solution", "value": 30, "unit": "days"}, {"measurement": "solubility in water", "setting": "[5]", "value": "poor solubility"}]}]}
